Measured values: patent US20250360117A1, “KCNT1 INHIBITORS COMPRISING AN ISOXAZOLE OR OXADIAZOLE CORE AND METHODS OF USE” (PRAXIS PRECISION MEDICINES, INC., priority 2022, published 2025)
Several values for one entry are separate records, joined by “and”; a condition that tells them apart may be missing. Equal entries are not always repeated. Entries after “also recorded” stand apart in the source; their conditions may differ.

What was measured:
[1] = test system: Kcnt1^R455H/+ heterozygous mice; assay: Spontaneous interictal epileptiform discharges (spikes) on EEG; assay type: in vivo, mouse; settings: 75 mg/kg s.c.
Text: Infrequent spontaneous seizures also occur in some Kcnt1^R455H/+ heterozygous mice. This experiment sought to determine if administration of a compound of Formula (I-A) could reduce interictal spikes.
Animals: Adult Kcnt1^R455H/+ heterozygous mice on a C57/B6J background were used in all experiments disclosed in this example. Mice were approximately 2-3 months old. No preference was made for male or female animals. This strain is almost always stillborn in the homozygous condition. Seizures occur in some but not all heterozygotes, and interictal discharges occurs reliably.
Implantation of EEG electrodes: Mice were anesthetized with inhaled isoflurane 3-4% induction followed by approximately 1-1.5% maintenance titrated to effect. The head was fixed in a Kopf stereotactic apparatus, and the scalp was sterilized with povidone-iodine. The temperature was regulated to 37 degrees Celsius with a heating pad and rectal probe. Pre-emptive analgesia was provided with subgaleal bupivacaine 0.1% administered to form a wheal on the scalp, no more than 0.08 mL/10 g body weight. A linear midline scalp incision was made from behind the eyes to expose skull markers. Four holes were drilled (#60 drill bit): two anterior to the coronal suture (for left and right active recording), and two ⅔ of the way from the frontal to lambdoid suture (for reference and ground), […]. Screw electrodes were inserted in each burr hole (size W00-96×1.6 mm soldered to 15 mm insulated wire) and connected to a plastic pedestal (PlasticsOne E363). This assembly was then secured with dental cement. Meloxicam 5 mg/kg IP was given for post-operative analgesia.
Drug preparation for mice under EEG: A 7.5 mg/mL solution of a compound of Formula (I-A) was prepared on the day of injection in 10% DMSO/10% Solutol/80% deionized water. After at least 72 hours of baseline recording, the compound of Formula (I-A) was delivered subcutaneously at a dose of 75 mg/kg based on pre-surgical body weight.
EEG recording and analysis: Mice were held in a heated cage for at least 24 hours to recover before connection to the EEG recording system. Two-channel EEG with video was recorded using a Compumedics Grael EEG amplifier at 512 Hz sampling rate. The entire EEG was reviewed manually, and all interictal discharges and seizures were identified and marked. Video recordings were used to confirm epileptiform activity. Mice that had adequate recording quality and interictal spikes were selected for drug delivery. […] EEG recordings were manually scored by a reviewer blinded to treatment group. […]
EEG data were collected and reviewed in Compumedics Profusion. […] Average interictal discharge rates were determined in the baseline period and in the first, second, and third post-injection days (FIG. 3A). […]

[2] = Brain exposure in pups after maternal dosing (LC-MS/MS); assay type: in vivo, mouse; settings: KCNT1^R455H/R455H pups, individual, brain collected when found deceased; maternal 75 mg/kg s.c.
Description: (§1) Whole brains were collected from all pups at 14 days after birth or at the time they are found deceased. Tails were genotyped through an automated system (Transnetyx) which was previously validated against PCR-based RFLP and sequencing. The whole brains were analyzed to determine brain exposure of Formula (I-A).
Bioanalysis of Brain Samples: Brain tissue was homogenized in 10:1 (v/wt) ratio using 10 mM PBS in methanol (2:1, v/v). 20 μL of samples were then precipitated with 200 μL IS solution (100 ng/mL Labetalol & 100 ng/mL Tolbutamide in ACN). The mixture was vortex-mixed and centrifuged at 4000 rpm for 15 min, 4° C. An aliquot of 100 μL supernatant was transferred to a sample plate and mixed with 100 μL water. The plate was shaken at 800 rpm for 10 minutes. 1 μL supernatant was then injected for LC-MS/MS analysis. A 1-3000 ng/ml PRX-0002904 calibration curve was prepared in mouse brain homogenate. Ultra-performance liquid chromatography (UPLC) parameters conditions are provided in Table 5 below, and the results are shown in Table 6 below.

[3] = test system: Kcnt1^R455H/+ heterozygous mice; assay: PTZ-induced seizures in Kcnt1^R455H/+ heterozygous mice; assay type: in vivo, mouse; settings: for Convulsive seizure latency: hazard ratio (drug/vehicle): log rank test; for Latency (s) to clonic or tonic seizures with loss of posture: individual animals, 1320 s = no seizure observed over the experiment, 75 mg/kg
Description: Kcnt1^R455H/+ heterozygous mice have increased sensitivity to PTZ seizure induction as compared with wild-type littermates. It was determined herein whether a compound of Formula (I-A) delivered prior to PTZ could delay the onset of convulsive seizures. Formula (I-A) (75 mg/kg s.c.) or a vehicle control was administered as a single dose. After a pretreatment period of one or two hours, mice were administered PTZ at a dose of 55 mg/kg for induction of seizures. Seizures were then scored based on behavior (no EEG). The latency to convulsive seizures was compared between groups to determine if the compound can prevent induced seizures.
Animals: Adult Kcnt1^R455H/+ heterozygous C57/B6J mice were used in this example. Mice were approximately 2 months old. No preference was made for male or female animals.
Drug preparation and delivery: A 7.5 mg/mL solution of a compound of Formula (I-A) was prepared on each day of injection in 10% DMSO/10% Solutol/80% deionized water with a volume sufficient for 10-20 animals. After at least 30 minutes of acclimatization to the testing environment, either the drug or vehicle control was delivered to each animal subcutaneously at a dose of 75 mg/kg based on current body weight.
PTZ injection and testing: Kcnt1^R455H/+ mice were tested with PTZ 55 mg/kg IP administered 1 or 2 hours after administration of either the compound of Formula (I-A) 75 mg/kg SC or vehicle control. Mice were then monitored continuously for 30 min by an observer blinded to treatment group. […] Latency to first clonic seizure with loss of posture was recorded and compared using the time to event analysis; log-rank Mantel-Cox in GraphPad Prism, p<0.05 was considered statistically significant. Seizures induced by PTZ were scored using a modified Racine scale, and the latency to convulsive seizures was compared between drug and vehicle groups (log rank test).
Behavior was scored live, and mice were recorded on video for later confirmation. Seizure severity scores were based on a recent report that is specifically designed for mouse PTZ experiments (Van Erum et al., Epilepsy and Behavior 2019 June; 95:51-55). Behavioral seizure scores were as follows: • −1: normal baseline • 0: whisker trembling • 1: behavioral arrest • 2: facial jerking • 3: neck jerks/myoclonus • 4: clonic (sitting) • 5: clonic, tonic-clonic (lying on belly) • 6: clonic, tonic-clonic (lying on side), and wild jumping • 7: tonic extension, possibly leading to respiratory arrest and death.
The time at which mice reached each stage was recorded. It was difficult to reliably ascertain grade 0-2 seizures without the aid of EEG, and there was inconsistency between reviewers for stage 3-5 seizures. As the clearest and most consistent (between examiners) scores were for stage 6-7, only these were used for reporting and analysis, although earlier scores were also recorded and saved. Latency to stage 6 or above seizures were plotted as survival curves, and differences were assessed with a long rank test. Scoring was cut off after 22 minutes post-PTZ administration (1320 seconds).

[4] = test system: Kcnt1^R455H/R455H pups; assay: Survival of R455H homozygous pups after dosing of pregnant dams; assay type: in vivo, mouse; settings: for Age survived before death or euthanasia: individual, dams 75 mg/kg s.c.
Description: Quraishi et. al. PMID 32081855. Without wishing to be bound by theory, it is thought that inhibition of mutant channel activity by KCNT1 inhibitors, such as the compound of Formula (I-A), during gestation might aid the survival of homozygous pups. Timed matings were performed on heterozygote breeding pairs, and a compound of Formula (I-A) was administered to the pregnant dams. No dosing of the live pups with Formula (I-A) was performed. All surviving and stillborn offspring that could be recovered were then genotyped, and brains were dissected and sent for measurement of Formula (I-A).
Breeding and dosing: Timed matings were performed on three KCNT1^R455H+×KCNT1^R455H/+ breeding pairs. Maternal injections of Formula (I-A) (75 mg/kg s.c.) were performed for four pregnant dams from three Kcnt1^R455H/+×Kcnt1^R455H/+ breeding pairs and one Kcnt1^+/+×Kcnt1^+/+ breeding pair. Starting approximately 13 days after the mating plug was identified, pregnant dams were administered 75 mg/kg Formula (I-A) (s.c.) every 3 days (as permitted) through the time of delivery. There was some variability in the days of administration as noted. Offspring were observed daily after delivery. The records of litters and treatment dates are shown below in Table 3. In round one, two doses of Formula (I-A) were delivered to each of the two dams from the Kcnt1^R455H/+×Kcnt1^R455H/+ crosses. […] In round two, three doses of Formula (I-A) were delivered to one dam from a Kcnt1^R455H/+×Kcnt1^R455H/+ cross.
as §1

[5] = test system: Cortical neurons from Kcnt1^R455H heterozygous mice; assay: Neuronal electrophysiology (current clamp and voltage clamp); assay type: cell-based, mouse; settings: 10 μM, 20 minutes, vs vehicle control
Description: Cortical neurons from Kcnt1^R455H heterozygous mice were cultured and treated for 20 minutes with 10 μM of a compound of Formula (I-A) in DMSO. Presumed glutamatergic neurons were identified based on pyramidal morphology. Presumed GABAergic neurons were identified based on spindle morphology (and fast spiking pattern in the control recordings). Current clamp and voltage clamp recordings were performed on an Axon Multiclamp 700B amplifier. It was observed that pyramidal cells treated with vehicle control had many action potentials and mild adaptation in response to an inward current and large outward currents with depolarization.

SMILES: C[C@H](NC(=O)c1cc(C(F)(F)F)nn1C)c1nc(-c2ccnc(C(F)(F)F)c2)no1 [Formula (I-A)]
- interictal spike rate, first 24 hours after dosing vs preceding 72-hour baseline ([1]; N=12, p=0.005): marked per-animal reduction; also recorded: reduced
- interictal spike rate, second day after dosing vs baseline ([1]; N=12, p=0.042): reduction persisted
- interictal spike rate reduction, third day after dosing vs baseline ([1]; N=12, p>0.999): no longer evident
- mice with a decrease in spike rates from baseline to Day 1 ([1]; baseline-adjusted spike rates): 11 out of 12
- Brain Homogenate Concentration [2]: 15.2 ng/mL and 133 ng/mL and 109 ng/mL and 16.9 ng/mL
- Brain Homogenate Concentration (ng/mL) [2]: BLQ
- Final brain concentration [2]: 167 ng/g and 1458 ng/g and 1200 ng/g and 354 ng/g
- Final brain concentration (ng/g) [2]: BLQ
- animals with PTZ-induced convulsive seizures ([3]; 75 mg/kg s.c., 1 hour pretreatment before PTZ 55 mg/kg IP, 1/16 animals, vehicle 6/15 (40%)): 6%
- Convulsive seizure latency: hazard ratio (drug/vehicle) ([3]; 75 mg/kg s.c., 1 hour pretreatment before PTZ 55 mg/kg IP): 0.13 (95% CI 0.03-0.58)
- Convulsive seizure latency: hazard ratio (drug/vehicle) ([3]; 75 mg/kg s.c., 2 hours pretreatment before PTZ 55 mg/kg IP): 0.056 (95% CI 0.019-0.161)
- mice with a seizure that reached stage 6-7 ([3]; 75 mg/kg s.c., 2 hours prior to PTZ 55 mg/kg IP, 1 out of 20 mice, vehicle 13 out of 20 (65%)): 5%
- effect on PTZ-induced seizures (in words) ([3]; 75 mg/kg s.c., compared to vehicle-treated mice): anticonvulsant against PTZ-induced seizures; also recorded: significantly increased the latency to and reduced the incidence of PTZ-induced seizures
- Latency (s) to clonic or tonic seizures with loss of posture ([3]; 75 mg/kg s.c. 1 hour prior to PTZ): 1320 s (14×) and 190 s and 647 s
- Latency (s) to clonic or tonic seizures with loss of posture ([3]; 75 mg/kg s.c. 2 hours prior to PTZ): 1320 s (19×) and 294 s
- Age survived before death or euthanasia ([4]; Kcnt1^+/+ pups, 2 or 3 doses, brains collected at 14 days): 14 days
- Age survived before death or euthanasia ([4]; Kcnt1^R455H/+ pups, 2 or 3 doses, brains collected at 14 days): 14 days
- Age survived before death or euthanasia ([4]; Kcnt1^R455H/R455H pups, 2 doses (litters 1, 2) or 3 doses (litter 3), pups not dosed, dams given 2 doses): 1 days (3×) and 2 days
- Age survived before death or euthanasia ([4]; Kcnt1^R455H/R455H pups, 2 doses (litters 1, 2) or 3 doses (litter 3), pups not dosed, dams given 3 doses): 4 days
- Kcnt1^R455H/R455H pups that survived multiple days ([4]; maternal dosing 75 mg/kg s.c.): Two of five
- survival of Kcnt1^R455H/R455H pups born alive (in words) ([4]; round one: two doses 75 mg/kg s.c. to each of two dams, four pups born alive): three surviving for one day and one surviving two days
- survival of Kcnt1^R455H/R455H pup (in words) ([4]; round two: three doses 75 mg/kg s.c. to one dam, one pup): survived for four days
- action potential firing and outward currents, pyramidal cells (presumed glutamatergic) [5]: less sustained action potential firing and diminished outward currents
- spike rates and outward currents, presumed GABAergic neurons [5]: markedly reduced spike rates and outward currents
